The target of series [1] is T1, PhoSL (Pholiota squarrosa, UniProt A0A384E107).
T1 construct: chemically synthesized 40-residue peptide, free termini, no tag, reduced Cys (DTT), homotrimer; […]; repeat 1 of a 180-residue polypeptide; differs from literature peptide at positions 23, 27, 35, 40
Put plainly: NMR chemical shift titration. The class given is binding. Particulars: 20 mM Tris-HCl pH 7.5, 0.2 mM DTT, 308 K; 50 μM peptide (as monomer); average for the two anomers.

Series [2] concerns the molecule itself. Put plainly: SEC; Superdex 75 10/300 with marker proteins; 96 μM PhoSL peptide; 20 mM Tris-HCl pH 7.5, 100 mM NaCl. Background: Size exclusion chromatography separates by hydrodynamic size, large species first.

As usually defined, the Kd is the concentration at which binding is half-saturated. With `C[C@@H]1OC(O)[C@@H](O)[C@H](O)[C@@H]1O` (mixture of isomers) [L-fucose], in series [1], the Kd came out at 5.9 ± 0.2 mM.

B1: PhoSL peptide (core α1–6 fucosylation-specific lectin from Pholiota squarrosa), chemically synthesized, 40 residues (peptide)
chain: APVPVTKLVCDGDTYKCTAYLDYGDGKWVAQWDTAVFHTT
notes: PhoSL lectin of Pholiota squarrosa; it corresponds to the first of three PhoSL-like repeats of the 180-residue polypeptide; numbers count on: the 40-residue peptide; No N-terminal acetylation and no C-terminal amidation; Cys10 and Cys17 were reduced (DTT) in the NMR samples; Homotrimer by gel filtration combined with cross-linking, and by the NMR structure; also called PhoSL trimer; source: …
As usually defined, the stoichiometry N is a count of units in the complex or per binding partner. B1: in series [2], the “stoichiometry N” value was determined as 3.
